From article PMC12136031 (Science Advances, 2025) come the findings set out here.

Like-named read-outs stand apart in the source and are kept apart here. Where only a bound is given, the exact number is not on record here.

Data set [1] deals with SARS-CoV-2. The experiment in a line: In vivo hamster SARS-CoV-2 infection assay. More on the design: species or system Syrian golden hamster.
Data set [2] deals with TFEB. Put plainly: TFEB protein level / nuclear localization in BEAS-2B cells. It counts as cell-based, human. To be noted: in the presence of DCAF7 (WT vs DCAF7 KO BEAS-2B), 18 hours.
Data set [3] has as its system lysosomal pH. The experiment in a line: Lysosomal pH (lysosensor yellow/blue) in OC43-infected BEAS-2B cells. It counts as cell-based, human. The settings on record: OC43 7 hours, 18 hours pretreatment, 100 nM.
A short description of data set [4]: in vitro. To be noted: African green monkey.
Data set [5] concerns Vero E6 cells. The settings on record: read-out: Cytotoxicity CC50 Vero E6 MEM.
Data set [6] relates to TFEB transcriptional targets. Put plainly: RNA-seq of DCAF7 inhibitor-treated BEAS-2B cells. The data set is classed as cell-based, human. To be noted: 3 μM, 18 hours.
Data set [7] has as its target T1, LCK (Homo sapiens, UniProt P06239).
T1 construct: purchased Eurofins Panlab (Safety47 Safety Scan, contract panel)
The experiment in a line: Safety47 Kinase Binding LCK. The settings on record: Kinases, Inhibitor; for Emax: read-out: Max Response; for IC50: read-out: RC50 (IC50).

Data set [8] addresses T2, DRD1 (Homo sapiens, UniProt P21728).
T2 construct: purchased Eurofins Panlab Safety47 Safety Scan
The experiment in a line: Safety47 cAMP DRD1. It counts as cell-based. The settings on record: for Emax: read-out: Max Response; for EC50: read-out: RC50 (EC50); for IC50: read-out: RC50 (IC50).

The target of data set [9] is T3, PDE4D2 (Homo sapiens, UniProt Q08499).
T3 construct: purchased Eurofins Panlab (Safety47 Safety Scan, contract panel)
T3 sequence (Q08499 303-809 limits assumed): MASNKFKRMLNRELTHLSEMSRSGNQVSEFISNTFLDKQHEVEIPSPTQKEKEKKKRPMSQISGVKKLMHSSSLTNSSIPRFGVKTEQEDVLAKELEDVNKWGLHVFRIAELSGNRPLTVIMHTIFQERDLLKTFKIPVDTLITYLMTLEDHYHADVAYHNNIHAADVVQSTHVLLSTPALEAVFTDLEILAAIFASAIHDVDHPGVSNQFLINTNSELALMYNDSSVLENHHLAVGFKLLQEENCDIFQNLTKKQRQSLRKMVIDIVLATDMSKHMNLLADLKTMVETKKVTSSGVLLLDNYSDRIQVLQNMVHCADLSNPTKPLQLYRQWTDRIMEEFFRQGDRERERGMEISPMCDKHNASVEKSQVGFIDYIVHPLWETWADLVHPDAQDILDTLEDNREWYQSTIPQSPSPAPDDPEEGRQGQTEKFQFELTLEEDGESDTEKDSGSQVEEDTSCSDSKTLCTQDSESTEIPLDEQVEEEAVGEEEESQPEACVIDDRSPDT
Put plainly: Safety47 Enzymatic PDE4D2. It counts as biochemical. To be noted: Inhibitor; for Emax: read-out: Max Response; for IC50: read-out: RC50 (IC50).

In data set [10] the target is T4, CHRM2 (Homo sapiens, UniProt P08172).
T4 construct: purchased Eurofins Panlab Safety47 Safety Scan
T4 sequence (P08172 1-466): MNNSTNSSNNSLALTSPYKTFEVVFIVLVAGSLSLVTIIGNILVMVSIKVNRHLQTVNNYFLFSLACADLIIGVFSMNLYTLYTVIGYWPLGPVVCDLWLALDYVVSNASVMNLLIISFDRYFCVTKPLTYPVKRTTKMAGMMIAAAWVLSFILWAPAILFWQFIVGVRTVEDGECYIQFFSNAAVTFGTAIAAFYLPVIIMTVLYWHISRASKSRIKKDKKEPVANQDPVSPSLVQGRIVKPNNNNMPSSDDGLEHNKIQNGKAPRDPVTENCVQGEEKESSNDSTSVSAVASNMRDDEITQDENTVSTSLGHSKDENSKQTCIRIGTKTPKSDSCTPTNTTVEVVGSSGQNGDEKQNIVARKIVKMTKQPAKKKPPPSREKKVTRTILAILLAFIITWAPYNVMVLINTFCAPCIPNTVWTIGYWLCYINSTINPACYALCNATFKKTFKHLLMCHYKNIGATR
The experiment in a line: Safety47 cAMP CHRM2. It counts as cell-based. To be noted: for Emax: read-out: Max Response; for EC50: read-out: RC50 (EC50); for IC50: read-out: RC50 (IC50).

For data set [11], the system named is hepatic endolysosomal capacity. The experiment in a line: Murine model of hepatic lysosomal activity (dextran cascade blue uptake). The data set is classed as in vivo, C57BL/6 mice. The settings on record: 50 mg/kg i.p. daily for 4 days.
The target in data set [12] is DCAF7 (Homo sapiens, UniProt P61962). Put plainly: Microscale thermophoresis (MST) of DCAF7 and BC18630. To be noted: read-out: Kd (MST binding coefficient). Background: Microscale thermophoresis detects binding through changes in fluorescence in a small temperature gradient.
Chain of DCAF7 (P61962 whole entry): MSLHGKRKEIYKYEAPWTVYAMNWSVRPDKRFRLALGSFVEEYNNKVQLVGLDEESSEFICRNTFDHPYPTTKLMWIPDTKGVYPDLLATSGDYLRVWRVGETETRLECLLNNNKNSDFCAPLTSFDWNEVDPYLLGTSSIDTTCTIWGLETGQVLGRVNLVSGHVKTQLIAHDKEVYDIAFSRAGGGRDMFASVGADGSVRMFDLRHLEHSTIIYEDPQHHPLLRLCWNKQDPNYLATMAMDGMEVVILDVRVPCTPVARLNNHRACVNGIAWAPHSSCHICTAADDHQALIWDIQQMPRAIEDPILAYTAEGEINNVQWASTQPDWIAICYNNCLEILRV
Data set [13] concerns SARS-CoV-2 (USA-WA-1/2020). The data set is classed as in vivo, K18-hACE2 mice. The settings on record: for Survival (mice survived): BID thereafter, until day 10.

T1 sequence (P06239 whole entry, species assumed): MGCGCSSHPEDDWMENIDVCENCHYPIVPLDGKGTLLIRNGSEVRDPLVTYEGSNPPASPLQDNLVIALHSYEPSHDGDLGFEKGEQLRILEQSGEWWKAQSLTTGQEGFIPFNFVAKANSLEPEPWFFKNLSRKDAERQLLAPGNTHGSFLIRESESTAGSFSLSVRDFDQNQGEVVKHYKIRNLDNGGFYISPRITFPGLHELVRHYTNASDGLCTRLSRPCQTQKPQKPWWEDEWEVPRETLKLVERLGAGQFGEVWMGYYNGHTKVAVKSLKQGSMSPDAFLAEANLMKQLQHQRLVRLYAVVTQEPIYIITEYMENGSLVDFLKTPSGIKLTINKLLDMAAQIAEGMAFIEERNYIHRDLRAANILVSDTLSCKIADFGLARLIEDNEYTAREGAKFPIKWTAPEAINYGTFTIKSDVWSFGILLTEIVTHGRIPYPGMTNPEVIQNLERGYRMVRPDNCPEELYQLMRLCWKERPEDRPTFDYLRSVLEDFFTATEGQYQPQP
T2 sequence (P21728 whole entry): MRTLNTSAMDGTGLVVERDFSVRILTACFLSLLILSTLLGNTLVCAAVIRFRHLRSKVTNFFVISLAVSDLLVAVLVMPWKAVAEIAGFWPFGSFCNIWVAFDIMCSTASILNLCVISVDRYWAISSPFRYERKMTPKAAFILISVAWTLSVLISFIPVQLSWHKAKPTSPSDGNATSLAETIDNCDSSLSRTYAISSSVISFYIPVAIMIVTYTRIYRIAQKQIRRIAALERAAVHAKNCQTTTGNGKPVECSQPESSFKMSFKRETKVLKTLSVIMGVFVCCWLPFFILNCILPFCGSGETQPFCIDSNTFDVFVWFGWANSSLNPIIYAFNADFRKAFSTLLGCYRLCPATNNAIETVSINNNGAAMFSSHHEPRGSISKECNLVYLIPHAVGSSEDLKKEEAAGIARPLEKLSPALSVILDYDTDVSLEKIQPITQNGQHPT

By IC50 is commonly meant the point on the concentration scale where inhibition reaches its midpoint. Usually EC50 stands for the concentration that produces a half-maximal response. In general, Kd refers to a measure of binding affinity in units of concentration. On to `Cl.c1ccc2c(Nc3ccc4[nH]ccc4c3)nc(-c3ccncc3)nc2c1` [BC18630, N-1H-indol-5-yl-2-pyridin-4-ylquinazolin-4-amine hydrochloride], for which, in data set [1] (4 dpi), the “NP-positive epithelial staining (IHC of lung slices)” value is “notably reduced”. The “Observed levels of lung injury” value in data set [1] (H&E histology) is recorded as “mitigated”. Further, in [1] (higher dose (50 mg/kg oral BID), 4 and 6 dpi), the “Lung viral load reduction” value is greater than 90%. Besides, in data set [1] (oral BID 20 and 50 mg/kg, all time points (2, 4, 6 dpi)), the “Lung viral titer (PFU)” value is given as “dose-dependently reduced”. Moreover, the TFEB protein level entry in data set [2] is reported as “increased”. The “Virally induced lysosomal alkalization (lysosomal pH)” value in data set [3] was “inhibited this virally induced alkalization”. In addition, the CC50 in data set [4] and in [5] was greater than 10 µM each time. For the same compound, in data set [6], the “Transcripts previously identified as TFEB transcriptional targets” value is “notable increase”. Further, the Emax came out at 49.1% in data set [7]; 0% in [8] (Agonist); 55.1% in [8] (Antagonist); 52.3% in data set [9]; 31.6% in data set [10] (Agonist); 0.25% in data set [10] (Antagonist). In addition, the IC50 was greater than 10 µM in data set [7], 8.45 µM in data set [8] (Antagonist), greater than 10 µM in [9] and greater than 10 µM in data set [10] (Antagonist). For the same compound, the EC50 in data set [8] (Agonist) and in [10] (Agonist) was greater than 10 µM throughout. In addition, in data set [8] (Antagonist), the “Curve Bottom” value stood at 0. Also, the “Curve Top” value in data set [8] (Antagonist) is recorded as 100. For the same compound, in [8] (Antagonist), the Hill was 1.45. For the same compound, the “Mouse hepatic endolysosomal capacity” value in [11] is “increased”. Also, the Kd in [12] was roughly 4.38 µM. The “Viral titer in mouse lungs” value in data set [13] (3 dpi, both treatments (pre and post), 40 mg/kg oral BID) was “substantialy decreased”. Also, in [13] (mouse lung, 6 dpi), the “TFEB IHC signal in the airways” value is reported as “increase”. The entries for the “Survival (mice survived)” value in [13] (post-treat: 40 mg/kg 12 hours after infection) and in [13] (pre-treat: 40 mg/kg 24 hours before infection) were 2/5 and 3/5, respectively.
Consider `Cl.Fc1cc(Nc2nc(-c3ccncc3)nc3ncccc23)cc2cc[nH]c12` [BC18813, N-(7-fluoro-1H-indol-5-yl)-2-pyridin-4-ylpyrido[2,3-d]pyrimidin-4-amine hydrochloride], for which the TFEB protein level entry in data set [2] is given as “increased”. Moreover, the Emax in data set [7] is 11.2%; in data set [8] (Agonist), 0%; in data set [8] (Antagonist), 50.1%; in data set [9], 44.4%; in data set [10] (Agonist), 47.7%; in [10] (Antagonist), 12.2%. Besides, the IC50 is greater than 10 µM in data set [7], 9.45 µM in [8] (Antagonist), greater than 10 µM in [9] and greater than 10 µM in data set [10] (Antagonist). In addition, the EC50 in data set [8] (Agonist) and in data set [10] (Agonist) was greater than 10 µM in each case. In data set [8] (Antagonist), the “Curve Bottom” value stood at 0. Further, in data set [8] (Antagonist), the “Curve Top” value is given as 100. Besides, in data set [8] (Antagonist), the Hill came to 1.19.
